Assay results: US10793927B2, “Separation of lignin and sugars from biomass pre-treatment liquors” (Stichting Energieonderzoek Centrum Nederland, priority 2015, dated 2020)

Assay: Solubility test of xylose in solvent systems suitable as organosolv treatment liquid
Format: physicochemical
Conditions: 20° C., stirred 24 h, based on total weight of the xylose added
Experimental: The solubility of xylose (>99% pure, VWR) in different solvent systems, that are suitable to be used as treatment liquid during organosolv, is tested. Xylose was used as representative of all monomeric sugars, as it is the most abundant carbohydrate found in hemicellulose present in hardwoods and herbaceous biomass and thus in corresponding organosolv liquors. The indicated amount of xylose was added to each solvent system at 20° C. and the suspension was mechanically stirred for 24 h. Hereafter, the saturated solution containing remaining xylose was allowed to settle for 3 h and the liquid was removed. The residue was dried and the amount of undissolved xylose was determined.

xylose not dissolved (acetone (100%), 2.7 wt % xylose added): 99.1 wt % | xylose not dissolved (ethanol (100%), 2.5 wt % xylose added): 82.2 wt % | xylose not dissolved (water/acetone 1.9/98.1 (w/w), 2.7 wt % xylose added): 99.1 wt % | xylose not dissolved (water/acetone 4.9/95.1 (w/w), 2.7 wt % xylose added): 93.0 wt % | xylose not dissolved (water/acetone 8.4/91.6 (w/w), 2.0 wt % xylose added): 79.1 wt % | xylose not dissolved (water/acetone 9.9/90.1 (w/w), 2.3 wt % xylose added): 80.2 wt % | xylose not dissolved (water/ethanol 4.3/95.7 (w/w), 2.2 wt % xylose added): 49.7 wt % | xylose not dissolved (water/ethanol 4.7/95.3 (w/w), 2.3 wt % xylose added): 46.2 wt % | xylose not dissolved (water/ethanol 7.8/92.2 (w/w), 2.3 wt % xylose added): 16.6 wt % | xylose not dissolved (water/ethanol 9.7/90.3 (w/w), 2.3 wt % xylose added): 0.0 wt %
Compound: O=C[C@H](O)[C@@H](O)[C@H](O)CO [xylose]
